Earlier results as cited in US11534622B2, “Non-invasive systems and methods for selective activation of photoreactive responses” (IMMUNOLIGHT, LLC, priority 2014, dated 2022).
Values belong to the molecule of their own block, whether it stands above or below them.

Columns and labels:
[1] = clinical use
tumors = settings: in vivo
[2] = orange juice, high UV exposure of 100 mJ/cm^2

duration of skin photosensitivity [1]: approximately 2 weeks
Structure (SMILES): Oc1cccc(-c2c3nc(c(-c4cccc(O)c4)c4ccc([nH]4)c(-c4cccc(O)c4)c4nc(c(-c5cccc(O)c5)c5ccc2[nH]5)CC4)C=C3)c1 [Foscan, Tetra (m-hydroxyphenyl) chlorin]

Structure (SMILES): CC(=O)[O-].CC(=O)[O-].CCc1c(CC)c2cc3nc(cnc4cc(OCCOCCOCCOC)c(OCCOCCOCCOC)cc4ncc4nc(cc1[n-]2)C(CCCO)=C4C)C(C)=C3CCCO.O.[Lu+3] [Lutetium texaphryin, Motexafin lutetium]
selectivity for tumors compared to normal tissues (tumors): one of the greatest reported selectivities for tumors

degradation of Vitamin C [2]: 17%
Structure (SMILES): O=C1O[C@H]([C@@H](O)CO)C(O)=C1O [Vitamin C]
